The values that follow come from patent US7351882B2, “Canola line 45H24” (Pioneer Hi-Bred International, Inc., priority 2005, dated 2008).

Each structure is given as a SMILES string.

The subject of this assay is Brassica napus variety 45H24. The assay can be described thus: Herbicide resistance rating of canola variety 45H24 at standard recommended application rates. The class given is in vivo. Conditions: for Herbicide resistance (description): result in words. The source says:
Herbicide Resistance: Resistance to various herbicides when applied at standard recommended application rates is expressed on a scale of 1 (resistant), 2 (tolerant), or 3 (susceptible).

Regarding `O=C(O)CNCP(=O)(O)O` [Glyphosate], the “Herbicide resistance (description)” value is on record as “resistant”. Where the note is “listed as glyphosate”, the “Herbicide resistance (description)” value is given as “resistance”. The “Herbicide resistance (mean rating)” value (scale 0 = not tested, 1 = resistant, 2 = tolerant, 3 = susceptible) is given as 1.00.
